Tests used:
BM stromal cells (BMSCs) = experiment: Viability of bone marrow stromal cells (MTT); format: cell-based, human; settings: 0.5 μM
Description: Primary MM patient samples were freshly isolated from bone marrow aspirates from patients undergoing diagnostic or restaging bone marrow aspirates under an IRB-approved protocol. MM cells were purified using custom-made RosetteSep cocktail of monoclonal antibodies (mAb's) (StemCell Technologies Inc, Vancouver, Canada) for negative selection of CD138^+ MM cells. The CD138^− fraction of the MM cell purification process was cultured in 20% FBS-supplemented media for isolation of the adherent bone marrow stromal cells. Peripheral blood B cells were isolated by ficoll-density centrifugation of peripheral blood samples from MM patients. […] […] At the end of each treatment, cells were incubated with 1 mg/ml MTT for 4 hours at 37° C.; a mixture of isopropanol and 1N HCl (23:2, v/v) was then added under vigorous pipetting to dissolve the formazan crystals. Dye absorbance (A) in viable cells was measured at 570 nm, with 630 nm as a reference wavelength. Cell survival was estimated as a percentage of the value of untreated controls. All experiments were repeated at least three times, and each experimental condition was repeated at least in quadruplicate wells in each experiment.

MM1S-LucNeo cells = experiment: Orthotopic mouse model of multiple myeloma, bioluminescence imaging; format: in vivo; settings: 50 mg/kg PO BID, after 8 days of treatment, p=0.58
Description: MM1S-LucNeo cells were created by transducing MM1S cells with a retrovirus encoding the firefly luciferase coding region fused to neomycin phosphotransferase (pMMP-LucNeo). Transduced cells were selected by growth in medium (RPMI, 10% FBS, penicillin/streptomycin) containing G418 at an effective concentration of 1 mg/ml.
NOD-SCID mice (Jackson Laboratory) were sublethally irradiated with 300 rads from a ^137CS source. Three hours after irradiation, a total of 5×10^6 MM1S-LucNeo cells in mid-logarithmic growth phase were injected via tail vein into each mouse in a volume of 300 μL of PBS. Mice were maintained under sterile conditions.
Bioluminescence imaging was performed with a Xenogen In Vivo Imaging System (IVIS 100). Mice were anesthetized by IP injection of ketamine 150 mg/kg and xylazine 12 mg/kg, and simultaneously D-luciferin 50 mg/kg was administered by IP injection. Imaging was performed 15 minutes after D-luciferin injection with a setting of 2 minutes, and a bin setting of 2. Mice were allowed to recover under isothermic conditions. Mice were imaged weekly beginning 2 weeks after tumor inoculation. Mice with increasing tumor burden were divided into 2 statistically equivalent cohorts, and treatment was started 4 weeks after tumor inoculation. […]

peripheral blood B-cells = experiment: Viability of peripheral blood B-cells; format: cell-based, human; settings: 0.5 μM
Description: Primary MM patient samples were freshly isolated from bone marrow aspirates from patients undergoing diagnostic or restaging bone marrow aspirates under an IRB-approved protocol. MM cells were purified using custom-made RosetteSep cocktail of monoclonal antibodies (mAb's) (StemCell Technologies Inc, Vancouver, Canada) for negative selection of CD138^+ MM cells. The CD138^− fraction of the MM cell purification process was cultured in 20% FBS-supplemented media for isolation of the adherent bone marrow stromal cells. Peripheral blood B cells were isolated by ficoll-density centrifugation of peripheral blood samples from MM patients.
To assess whether MM cells are more susceptible to inhibition of IGF-1R signaling, than normal cells in their immediate environment, primary MM cells, normal bone marrow stromal cells and peripheral blood B-cells, were exposed to 0.5 μM NVP-AEW541.

Compound: Nc1ncnc2c1c(-c1cccc(OCc3ccccc3)c1)cn2[C@H]1C[C@@H](CN2CCC2)C1 [NVP-AEW541]
- viability of bone marrow stromal cells (BM stromal cells (BMSCs)): no effect on the viability
- body weight (MM1S-LucNeo cells): no difference in body weight
- viability of peripheral blood B-cells (peripheral blood B-cells): no effect on the viability

Reference: patent US7781393B2, “Methods for inhibiting tumor cell growth” (Dana-Farber Cancer Institute, Inc., priority 2004, dated 2010)
